Data taken from ChEMBL document CHEMBL5724914, “Linking interpersonal differences in gut microbiota composition and drug biotransformation activity” (2024).

Columns and labels:
[1] = (§1) The drug is tested on WLS-006 corresponding to human gut metagenome with ENA study accession number: PRJEB37062 and ENA sample accession number: ERS12561741 for biotransformation under anaerobic condition. The drug concentrations were measured over 9 timepoints collected between 0 and 24 hours of incubation by liquid-chromatography-coupled mass spectrometry (LC–MS); conditions: 2 µM
[2] = human gut metagenome, 24 h, 2 µM
[3] = human gut metagenome, 24 h, 2 µM; remark: listed apart in the source
[4] = as §1, with “WLS-082” for “WLS-006”, “ERS12561751” for “ERS12561741”; conditions: 2 µM
[5] = human gut metagenome, 24 h, 2 µM; remark: listed apart in the source
[6] = human gut metagenome, 24 h, 2 µM; remark: listed apart in the source
[7] = human gut metagenome, 24 h, 2 µM; remark: listed apart in the source
[8] = as §1, with “Z-025” for “WLS-006”, “rabbit” for “human”, “ERS12561824” for “ERS12561741”; conditions: 2 µM
[9] = human gut metagenome, 24 h, 2 µM; remark: listed apart in the source
[10] = human gut metagenome, 24 h, 2 µM; remark: listed apart in the source
[11] = as §1, with “WLS-073” for “WLS-006”, “ERS12561749” for “ERS12561741”; conditions: 2 µM
[12] = as §1, with “Z-030” for “WLS-006”, “mouse” for “human”, “ERS12561829” for “ERS12561741”; conditions: 2 µM
[13] = as §1, with “Z-004” for “WLS-006”, “to” for “to human gut”, “ERS12561804” for “ERS12561741”; conditions: 2 µM
[14] = human gut metagenome, 24 h, 2 µM; remark: listed apart in the source
[15] = as §1, with “Z-005” for “WLS-006”, “to” for “to human gut”, “ERS12561805” for “ERS12561741”; conditions: 2 µM
[16] = human gut metagenome, 24 h, 2 µM; remark: listed apart in the source
[17] = as §1, with “Z-020” for “WLS-006”, “rabbit” for “human”, “ERS12561819” for “ERS12561741”; conditions: 2 µM
[18] = human gut metagenome, 24 h, 2 µM; remark: listed apart in the source
[19] = as §1, with “WLS-350” for “WLS-006”, “ERS12561789” for “ERS12561741”; conditions: 2 µM
[20] = human gut metagenome, 24 h, 2 µM; remark: listed apart in the source
Note: call rule not given here.

Row | SMILES | Bacterial Biotransformation [1] | Bacterial Biotransformation [2] | Bacterial Biotransformation [3] | Bacterial Biotransformation [4] | Bacterial Biotransformation [5] | Bacterial Biotransformation [6] | Bacterial Biotransformation [7] | Bacterial Biotransformation [8] | Bacterial Biotransformation [9] | Bacterial Biotransformation [10] | Bacterial Biotransformation [11] | Bacterial Biotransformation [12] | Bacterial Biotransformation [13] | Bacterial Biotransformation [14] | Bacterial Biotransformation [15] | Bacterial Biotransformation [16] | Bacterial Biotransformation [17] | Bacterial Biotransformation [18] | Bacterial Biotransformation [19] | Bacterial Biotransformation [20]
1 | COc1ccccc1OCC(O)COC(N)=O (stereo not given) [METHOCARBAMOL] | Compound NOT metabolized | Compound NOT metabolized | Compound NOT metabolized | Compound NOT metabolized | Compound NOT metabolized | Compound NOT metabolized | Compound NOT metabolized | Compound NOT metabolized | Compound NOT metabolized | Compound NOT metabolized | Compound NOT metabolized | Compound NOT metabolized | Compound NOT metabolized | Compound NOT metabolized | Compound NOT metabolized | Compound NOT metabolized | Compound NOT metabolized | Compound NOT metabolized | Compound NOT metabolized | Compound NOT metabolized
2 | CC[C@@H](CO)NC(=O)[C@@H]1C=C2c3cccc4c3c(cn4C)C[C@H]2N(C)C1.O=C(O)/C=C\C(=O)O [METHYSERGIDE MALEATE] | Compound NOT metabolized | Compound NOT metabolized | Compound NOT metabolized | Compound NOT metabolized | Compound NOT metabolized | Compound NOT metabolized | Compound metabolized | Compound NOT metabolized | Compound NOT metabolized | Compound NOT metabolized | Compound NOT metabolized | Compound NOT metabolized | Compound NOT metabolized | Compound metabolized | Compound NOT metabolized | Compound NOT metabolized | Compound NOT metabolized | Compound NOT metabolized | Compound NOT metabolized | Compound NOT metabolized
3 | CCN(CC)CCNC(=O)c1cc(Cl)c(N)cc1OC [METOCLOPRAMIDE] | Compound NOT metabolized | Compound NOT metabolized | Compound NOT metabolized | Compound NOT metabolized | Compound NOT metabolized | Compound NOT metabolized | Compound NOT metabolized | Compound NOT metabolized | Compound NOT metabolized | Compound NOT metabolized | Compound NOT metabolized | Compound NOT metabolized | Compound NOT metabolized | Compound metabolized | Compound NOT metabolized | Compound NOT metabolized | Compound NOT metabolized | Compound NOT metabolized | Compound NOT metabolized | Compound NOT metabolized
4 | Cc1ccccc1N1C(=O)c2cc(S(N)(=O)=O)c(Cl)cc2NC1C (stereo not given) [METOLAZONE] | Compound NOT metabolized | Compound NOT metabolized | Compound NOT metabolized | Compound NOT metabolized | Compound NOT metabolized | Compound NOT metabolized | Compound metabolized | Compound metabolized | Compound NOT metabolized | Compound metabolized | Compound NOT metabolized | Compound NOT metabolized | Compound NOT metabolized | Compound metabolized | Compound NOT metabolized | Compound metabolized | Compound NOT metabolized | Compound metabolized | Compound metabolized | Compound NOT metabolized
5 | COCCc1ccc(OCC(O)CNC(C)C)cc1.COCCc1ccc(OCC(O)CNC(C)C)cc1.O=C(O)C(O)C(O)C(=O)O (stereo not given) [METOPROLOL TARTRATE] | Compound NOT metabolized | Compound metabolized | Compound metabolized | Compound NOT metabolized | Compound NOT metabolized | Compound NOT metabolized | Compound NOT metabolized | Compound metabolized | Compound NOT metabolized | Compound NOT metabolized | Compound NOT metabolized | Compound NOT metabolized | Compound NOT metabolized | Compound NOT metabolized | Compound NOT metabolized | Compound metabolized | Compound NOT metabolized | Compound metabolized | Compound metabolized | Compound NOT metabolized
6 | CCN(CC)CCOC(=O)C(Cc1cccc2ccccc12)CC1CCCO1.O=C(O)C(=O)O (stereo not given) [NAFRONYL OXALATE] | Compound metabolized | Compound metabolized | Compound metabolized | Compound metabolized | Compound metabolized | Compound metabolized | Compound metabolized | Compound NOT metabolized | Compound NOT metabolized | Compound metabolized | Compound metabolized | Compound NOT metabolized | Compound metabolized | Compound metabolized | Compound metabolized | Compound NOT metabolized | Compound metabolized | Compound metabolized | Compound metabolized | Compound NOT metabolized
7 | CCc1nn(CCCN2CCN(c3cccc(Cl)c3)CC2)c(=O)n1CCOc1ccccc1 [NEFAZODONE] | Compound metabolized | Compound metabolized | Compound NOT metabolized | Compound metabolized | Compound NOT metabolized | Compound NOT metabolized | Compound metabolized | Compound NOT metabolized | Compound metabolized | Compound metabolized | Compound NOT metabolized | Compound NOT metabolized | Compound NOT metabolized | Compound metabolized | Compound NOT metabolized | Compound NOT metabolized | Compound NOT metabolized | Compound NOT metabolized | Compound NOT metabolized | Compound metabolized
